Some test systems named below: EKVX NSCLC; HCC-2998 colon; HL-60(TB) leukemia; MOLT-4 leukemia; SK-MEL-5 melanoma; SK-OV-3 ovarian; SNB-75 CNS; SR leukemia; U251 CNS; UACC-257 melanoma.
What all share (experiment): growth of human tumour cells (NCI), 48 h

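Assay format: 96-well plates, 48-hour exposure. Here, GI50 denotes the concentration required for 50% inhibition of growth. TGI marks complete inhibition of growth.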 A value given as a limit tells only on which side of the number the result lay.

Consider `NCC(=O)CCC(=O)O`, for which the GI50 in the assay on EKVX NSCLC is greater than 100 µM; with HCC-2998 colon it was greater than 100 µM; in the assay on HL-60(TB) leukemia, greater than 100000 nM; in the assay on MOLT-4 leukemia it was greater than 100000 nM; in the assay with SK-MEL-5 melanoma, greater than 100000 nM; in the assay on SK-OV-3 ovarian, greater than 100 µM. The GI50 in the assay with SNB-75 CNS was greater than 100 µM; in the assay on SR leukemia it was greater than 100000 nM; in the assay with U251 CNS, greater than 100 µM; in the assay with UACC-257 melanoma, greater than 100000 nM. Besides, the TGI in the assay with EKVX NSCLC, in the assay on HCC-2998 colon, in the assay on HL-60(TB) leukemia, in the assay on MOLT-4 leukemia, in the assay with SK-MEL-5 melanoma and with SK-OV-3 ovarian was greater than 100 µM in each case. For the same molecule, the TGI with SNB-75 CNS, with SR leukemia, with U251 CNS and with UACC-257 melanoma was greater than 100 µM in each case.

Turning to `O=C1c2ccccc2C2(O)Oc3cccc(O)c3C12O` (stereo not given), the TGI in the assay with EKVX NSCLC, in the assay on HCC-2998 colon, in the assay with HL-60(TB) leukemia, in the assay on MOLT-4 leukemia, with SK-MEL-5 melanoma and in the assay on SK-OV-3 ovarian was greater than 100 µM throughout. For the same molecule, the TGI in the assay with SNB-75 CNS, in the assay on SR leukemia, in the assay on U251 CNS and in the assay with UACC-257 melanoma was greater than 100 µM each time.

Turning to `CC1(C)CC[C@]2(C(=O)O)CC[C@]3(C)[C@H](CC[C@@H]4[C@@]5(C)CCC(=O)C(C)(C)[C@@H]5CC[C@]43C)[C@H]2[C@H]1OC(=O)C(F)(F)F`, the GI50 in the assay on EKVX NSCLC was 14.5 µM; in the assay with HCC-2998 colon, 10.7 µM; with HL-60(TB) leukemia, 3160 nM; with MOLT-4 leukemia, 4220 nM; in the assay with SK-MEL-5 melanoma, 8110 nM; in the assay on SK-OV-3 ovarian, 13.4 µM. Further, the GI50 was 26.4 µM in the assay on SNB-75 CNS, 3750 nM in the assay on SR leukemia, 12.4 µM in the assay with U251 CNS and 10100 nM with UACC-257 melanoma. For the same molecule, the TGI in the assay on EKVX NSCLC came out at 30.5 µM; with HCC-2998 colon, 22.8 µM; in the assay with HL-60(TB) leukemia, 13.6 µM; with MOLT-4 leukemia it was 22.5 µM; in the assay on SK-MEL-5 melanoma, 20.6 µM; in the assay with SK-OV-3 ovarian it was 54 µM. The TGI in the assay on SNB-75 CNS is greater than 100 µM; in the assay on SR leukemia, 33.8 µM; in the assay with U251 CNS, 26.2 µM; with UACC-257 melanoma it was 25.2 µM.

As for `COc1cc(/C=C2\CCc3ccccc3C2=O)cc(OC)c1OC`, the TGI in the assay on EKVX NSCLC worked out at 34.3 µM; in the assay with HCC-2998 colon, 32.2 µM; in the assay on HL-60(TB) leukemia, 45.5 µM; with MOLT-4 leukemia, 40.7 µM; in the assay on SK-MEL-5 melanoma, 25.3 µM; in the assay on SK-OV-3 ovarian, 35.5 µM. Further, the TGI was 53.6 µM in the assay on SNB-75 CNS, greater than 100 µM in the assay on SR leukemia, 29.7 µM in the assay with U251 CNS and 27.4 µM with UACC-257 melanoma.

`COc1ccc(C(=O)N/N=C/c2ccc(O)cc2O)cc1Nc1ccnc(C(F)(F)F)c1`: the GI50 was 0.482 µM with EKVX NSCLC; 0.513 µM in the assay with HCC-2998 colon; 291 nM in the assay with HL-60(TB) leukemia; 357 nM with MOLT-4 leukemia; 534 nM in the assay with SK-MEL-5 melanoma; 0.725 µM with SK-OV-3 ovarian. Besides, the GI50 was 2.22 µM in the assay on SNB-75 CNS, 148 nM with SR leukemia, 0.401 µM with U251 CNS and 1690 nM in the assay with UACC-257 melanoma. The TGI with EKVX NSCLC was 27.9 µM; in the assay with HCC-2998 colon it was 22.1 µM; with HL-60(TB) leukemia, 0.923 µM; in the assay on MOLT-4 leukemia, 2.59 µM; with SK-MEL-5 melanoma, 5.03 µM; with SK-OV-3 ovarian it was 18.8 µM. Moreover, the TGI in the assay on SNB-75 CNS was 49.8 µM; in the assay on SR leukemia, 0.452 µM; in the assay with U251 CNS, 29.4 µM; in the assay with UACC-257 melanoma it was 16.9 µM.

As to `C[C@@]12CCC[C@@](C)(C(=O)O)C1CC[C@@]13CC(=O)[C@@](CO)(CCC12)C3` (stereo not given in full), the GI50 in the assay on EKVX NSCLC was greater than 100 µM; in the assay on HCC-2998 colon, greater than 100 µM; in the assay on HL-60(TB) leukemia, greater than 100000 nM; in the assay with MOLT-4 leukemia, greater than 100000 nM; in the assay with SK-MEL-5 melanoma, greater than 100000 nM; in the assay with SK-OV-3 ovarian, greater than 100 µM. For the same molecule, the GI50 was greater than 100 µM in the assay with SNB-75 CNS, greater than 100000 nM in the assay on SR leukemia, greater than 100 µM in the assay on U251 CNS and greater than 100000 nM with UACC-257 melanoma. Moreover, the TGI in the assay with EKVX NSCLC, in the assay with HCC-2998 colon, with HL-60(TB) leukemia, in the assay with MOLT-4 leukemia, in the assay on SK-MEL-5 melanoma and in the assay with SK-OV-3 ovarian was greater than 100 µM throughout. Also, the TGI with SNB-75 CNS, in the assay on SR leukemia, in the assay with U251 CNS and in the assay with UACC-257 melanoma was greater than 100 µM throughout.

Consider `CC(C)[C@@H](CS(=O)(=O)C(C)C)N1C(=O)[C@@](C)(CC(=O)O)C[C@H](c2cccc(Cl)c2)[C@H]1c1ccc(Cl)cc1`, for which the GI50 in the assay on EKVX NSCLC is 11.9 µM; in the assay on HCC-2998 colon it was 16.7 µM; in the assay with HL-60(TB) leukemia, 17700 nM; in the assay on MOLT-4 leukemia, 338 nM; in the assay with SK-MEL-5 melanoma it was 1960 nM; with SK-OV-3 ovarian, 19.2 µM. The GI50 with SNB-75 CNS was 12.2 µM; in the assay with SR leukemia, 249 nM; in the assay on U251 CNS, 7.86 µM; with UACC-257 melanoma, 381 nM. In addition, the TGI was greater than 100 µM in the assay on EKVX NSCLC; 37.7 µM in the assay on HCC-2998 colon; 46.8 µM in the assay on HL-60(TB) leukemia; 11.1 µM in the assay on MOLT-4 leukemia; 17.2 µM in the assay with SK-MEL-5 melanoma; 73.2 µM in the assay with SK-OV-3 ovarian. For the same molecule, the TGI in the assay on SNB-75 CNS is greater than 85.8 µM; in the assay with SR leukemia, greater than 40.7 µM; with U251 CNS, 25.3 µM; in the assay with UACC-257 melanoma, 6.82 µM.

Take `Oc1ccc(SCc2ccc(NCc3ccccc3)cc2)cc1`: the TGI in the assay on EKVX NSCLC was 50.3 µM; with HCC-2998 colon it was 94.7 µM; in the assay on HL-60(TB) leukemia, 68.9 µM; with MOLT-4 leukemia it was 39.7 µM; in the assay on SK-MEL-5 melanoma, 47.3 µM; in the assay with SK-OV-3 ovarian it was greater than 100 µM. Also, the TGI with SNB-75 CNS was 67.2 µM; in the assay with SR leukemia, 47.6 µM; in the assay on U251 CNS, greater than 100 µM; in the assay on UACC-257 melanoma, greater than 100 µM.

With `Oc1ccc(-c2nc3ccc4[nH]ncc4c3c3c2CCCC3)c2cccnc12`, the GI50 in the assay with EKVX NSCLC was 0.329 µM; in the assay on HCC-2998 colon, 0.319 µM; in the assay with HL-60(TB) leukemia, 639 nM; in the assay with MOLT-4 leukemia, 393 nM; with SK-MEL-5 melanoma, 597 nM; in the assay on SK-OV-3 ovarian, 0.509 µM. Also, the GI50 with SNB-75 CNS is 0.132 µM; in the assay with SR leukemia, 120 nM; in the assay on U251 CNS it was 0.143 µM; in the assay with UACC-257 melanoma, 888 nM. Moreover, the TGI in the assay on EKVX NSCLC turned out to be 2.24 µM; in the assay on HCC-2998 colon, 5.45 µM; with HL-60(TB) leukemia, 3.14 µM; with MOLT-4 leukemia, 12.8 µM; with SK-MEL-5 melanoma, 1.56 µM; in the assay on SK-OV-3 ovarian, 2.26 µM. Besides, the TGI in the assay with SNB-75 CNS is 1.06 µM; in the assay with SR leukemia, 7.79 µM; in the assay on U251 CNS, 5.97 µM; in the assay with UACC-257 melanoma, 3.68 µM.

`C=C1C(=O)O[C@H]2[C@H]1CC(=O)/C(C)=C\CC[C@@]1(C)O[C@@H]21`: the GI50 in the assay on EKVX NSCLC is 4 µg/mL; in the assay with HCC-2998 colon, 3.47 µg/mL; with HL-60(TB) leukemia, 0.264 µg/mL; in the assay with MOLT-4 leukemia, 1.12 µg/mL; with SK-MEL-5 melanoma it was 2.99 µg/mL; with SK-OV-3 ovarian, 7.86 µg/mL. Also, the GI50 is 4.93 µg/mL with SNB-75 CNS, 0.759 µg/mL in the assay on SR leukemia, 5.32 µg/mL with U251 CNS and 3.39 µg/mL with UACC-257 melanoma. Further, the TGI with EKVX NSCLC is 8.03 µg/mL; in the assay with HCC-2998 colon, 7.4 µg/mL; in the assay on HL-60(TB) leukemia, 4.19 µg/mL; in the assay on MOLT-4 leukemia, 4.7 µg/mL; in the assay on SK-MEL-5 melanoma, 8.73 µg/mL; in the assay with SK-OV-3 ovarian it was 17.4 µg/mL. Moreover, the TGI in the assay with SNB-75 CNS came out at 9.57 µg/mL; in the assay on SR leukemia, 9.5 µg/mL; in the assay on U251 CNS, 10.9 µg/mL; with UACC-257 melanoma it was 6.99 µg/mL.

With `Cc1nn(C)c(=O)c2nn(-c3ccccc3)c(C)c12`, the TGI in the assay on EKVX NSCLC, in the assay on HCC-2998 colon, with HL-60(TB) leukemia, with MOLT-4 leukemia, in the assay with SK-MEL-5 melanoma and with SK-OV-3 ovarian was greater than 100 µM throughout. For the same molecule, the TGI in the assay with SNB-75 CNS, in the assay with SR leukemia, in the assay on U251 CNS and with UACC-257 melanoma was greater than 100 µM in each case.

`COC(=O)[C@H](Cc1ccccc1)NC(=O)[C@@H](OC)[C@@H]1Cc2cc3cc(OC4CC(OC5CC(O)C(O)C(C)O5)C(O)C(C)O4)c(C)c(O)c3c(O)c2C(=O)[C@H]1OC1CC(OC2CC(OC3CC(C)(O)C(O)C(C)O3)C(O)C(C)O2)C(O)C(C)O1` (stereo not given in full): the GI50 in the assay with EKVX NSCLC was 0.0393 µM; in the assay with HCC-2998 colon, 0.0158 µM; in the assay on HL-60(TB) leukemia, 33.6 nM; in the assay on MOLT-4 leukemia, 17 nM; with SK-MEL-5 melanoma, 6.91 nM; in the assay on SK-OV-3 ovarian it was 0.0509 µM. The GI50 was 0.0186 µM in the assay on SNB-75 CNS, 7.36 nM in the assay on SR leukemia, 0.0257 µM with U251 CNS and 10.3 nM with UACC-257 melanoma. The TGI in the assay with EKVX NSCLC was greater than 14.3 µM; in the assay on HCC-2998 colon it was 0.0478 µM; in the assay on HL-60(TB) leukemia it was 0.649 µM; with MOLT-4 leukemia, 0.161 µM; in the assay on SK-MEL-5 melanoma, 0.0357 µM; in the assay with SK-OV-3 ovarian it was greater than 14.3 µM. The TGI in the assay on SNB-75 CNS is 0.0575 µM; in the assay on SR leukemia it was 1.04 µM; with U251 CNS, greater than 14.3 µM; in the assay on UACC-257 melanoma, 2.54 µM.

On to `COc1ccc(S(=O)(=O)N/N=C(\C)CN2C(=O)c3ccccc3C2=O)cc1`, for which the TGI with EKVX NSCLC, in the assay on HCC-2998 colon, in the assay with HL-60(TB) leukemia, in the assay on MOLT-4 leukemia, with SK-MEL-5 melanoma and in the assay on SK-OV-3 ovarian was greater than 100 µM throughout. In addition, the TGI in the assay with SNB-75 CNS, with SR leukemia, with U251 CNS and with UACC-257 melanoma was greater than 100 µM throughout.

These data come from PubChem BioAssay (NCI).
